ChEMBL document CHEMBL1131495, “2,4-Diamino-6,7-dihydro-5H-cyclopenta[d]pyrimidine analogues of trimethoprim as inhibitors of Pneumocystis carinii and Toxoplasma gondii dihydrofolate reductase” (J Med Chem, 1998)

Key:
[1] = target: T1, Dihydrofolate reductase (Pneumocystis carinii, UniProt P16184)
T1 sequence (P16184 whole entry): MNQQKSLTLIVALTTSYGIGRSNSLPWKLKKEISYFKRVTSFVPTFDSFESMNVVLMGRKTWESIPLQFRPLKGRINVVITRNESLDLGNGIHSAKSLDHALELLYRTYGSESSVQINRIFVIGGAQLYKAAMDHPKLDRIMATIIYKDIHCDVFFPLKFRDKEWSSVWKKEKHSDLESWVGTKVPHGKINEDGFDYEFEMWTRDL
Description: Compound was tested for inhibition activity against pneumocystis carinii (Pneumocystis carinii) Dihydrofolate reductase

[2] = target: T2, Dihydrofolate reductase (Rattus norvegicus, UniProt Q920D2)
T2 sequence (Q920D2 whole entry): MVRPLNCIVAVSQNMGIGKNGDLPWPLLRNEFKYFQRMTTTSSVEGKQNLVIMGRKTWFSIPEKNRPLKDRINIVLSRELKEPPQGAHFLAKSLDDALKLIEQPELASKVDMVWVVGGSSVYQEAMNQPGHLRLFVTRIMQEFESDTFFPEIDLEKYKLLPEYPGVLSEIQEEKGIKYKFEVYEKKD
Description: Compound was tested for inhibition activity against rat liver lipophilic Dihydrofolate reductase (DHFR).

[3] = target: T3, Bifunctional dihydrofolate reductase-thymidylate synthase (Toxoplasma gondii, UniProt Q07422); assay: Compound was tested for inhibition activity against Toxoplasma gondii (Toxoplasma gondii) Dihydrofolate reductase
T3 sequence (Q07422 whole entry): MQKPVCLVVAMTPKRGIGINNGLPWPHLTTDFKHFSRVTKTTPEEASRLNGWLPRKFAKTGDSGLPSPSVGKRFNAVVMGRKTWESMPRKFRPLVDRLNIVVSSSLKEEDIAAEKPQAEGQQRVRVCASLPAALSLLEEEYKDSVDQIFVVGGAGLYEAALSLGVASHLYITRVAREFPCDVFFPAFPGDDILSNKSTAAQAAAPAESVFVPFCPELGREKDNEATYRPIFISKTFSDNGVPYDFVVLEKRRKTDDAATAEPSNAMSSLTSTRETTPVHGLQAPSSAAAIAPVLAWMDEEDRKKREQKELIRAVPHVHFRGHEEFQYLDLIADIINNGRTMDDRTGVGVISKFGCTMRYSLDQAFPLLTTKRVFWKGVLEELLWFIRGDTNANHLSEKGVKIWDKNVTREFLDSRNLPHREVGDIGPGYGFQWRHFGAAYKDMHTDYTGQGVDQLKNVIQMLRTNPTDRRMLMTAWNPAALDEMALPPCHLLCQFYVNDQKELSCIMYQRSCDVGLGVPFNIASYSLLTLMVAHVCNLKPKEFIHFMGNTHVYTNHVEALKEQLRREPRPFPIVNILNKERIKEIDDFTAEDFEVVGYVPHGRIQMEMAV

[4] = Selectivity ratio is the ratio between the IC50 values of rat liver and Pneumocystis carinii
[5] = Selectivity ratio is the ratio between the IC50 values of rat liver and Toxoplasma gondii

Row | Compound | IC50 [1] | IC50 [2] | IC50 [3] | Selectivity ratio [4] | Selectivity ratio [5]
1 | COc1cc(CCC2CCc3nc(N)nc(N)c32)cc(OC)c1OC (stereo not given) | 1800 nM | 510 nM | 140 nM | 0.28 | 3.64
2 | COc1ccc(OC)c(Cc2cnc3nc(N)nc(N)c3c2C)c1 [PIRITREXIM] |  | 15 nM |  |  | 
3 | COc1cc(CC2CCc3nc(N)nc(N)c32)cc(OC)c1OC (stereo not given) | > 32000 nM | 69000 nM | 21000 nM |  | 3.29
4 | COc1cc(CCCC2CCc3nc(N)nc(N)c32)cc(OC)c1OC (stereo not given) | 1300 nM | 220 nM | 140 nM | 0.17 | 1.57
